# Measured values: patent US6861426B2, “Crystal forms of lamotrigine and processes for their preparations” (Teva Pharmaceutical Industries Ltd., priority 2001, dated 2005)
# Assay: Heating of Lamotrigine Solvates/Hydrates (annealing; crystal form afterwards)
# Assay type: physicochemical
# Details: resulting crystal form
# Description: All X-ray powder diffraction patterns were obtained by methods known in the art. One method employs the use of a Philips X-Ray powder diffractometer, Goniometer model 1050/70 at a scanning speed of 20 per minute. Another method employs the use of a Scintag X'TRA X-ray powder diffractometer, equipped with a solid state Si(Li) detector thermoelectrically cooled, at a scanning speed of 30 min.^−1 Scanning range […] two-theta. Copper radiation of 1.5418 Å was used. According to one embodiment, the present invention provides a process for preparing lamotrigine form A including heating lamotrigine solvates at temperatures elevated enough to remove all the solvent from the crystal, usually above 100° C. for a period of about 2 hours, preferably above 110° C. for a period of about 1 hour, more preferably at about 150° C. for a period of about ½ hour. [table]
Crystal form after annealing at 110° C. 45 min (solid heated at 110° C. for 45 min),Crystal form after annealing at 80° C. 60 min (solid heated at 80° C. for 60 min),Compound
A + P,–,"Nc1nnc(-c2cccc(Cl)c2Cl)c(N)n1 [C DMF monosolvate, 6-(2,3-Dichlorophenyl)-1,2,4-triazine-3,5-diamine]"
–,Amorphous,"Nc1nnc(-c2cccc(Cl)c2Cl)c(N)n1 [J ispropanolate, 6-(2,3-Dichlorophenyl)-1,2,4-triazine-3,5-diamine]"
